In patent publication US9044452B2, “Use of resiniferatoxin (RTX) for producing an agent for treating joint pains and method for applying said agent” (MESTEX AG, priority 2004, dated 2015):

Assays:
[1] = test system: knee joint; experiment: Injection of resiniferatoxin solution into the intracapsular space of a patient's knee joint; assay type: in vivo, human
Protocol: Under the optionally simultaneous (image converter, CT, sonography, MRI, etc.) or subsequent (x-ray, CT, MRI, sonography, arthroscopy, etc.) imaging control, the therapist brought an injection needle into the joint space of a knee joint and injected 9 mL of a 500 nmolar solution (approximately 0.003 mg) of resiniferatoxin into the intracapsular space. The patient noted a clear alleviation of their symptoms already 14 hours after the intervention. This alleviation lasted for more than 6 months.
Under the optionally simultaneous (image converter, CT, sonography, MRI, arthroscopy, etc.) or subsequent (x-ray, CT, MRI, sonography, etc.) imaging control, the therapist brought an injection needle into the joint space of a knee joint and injected […] of a 500 nmolar solution (approximately 0.006 mg) of resiniferatoxin into the intracapsular space. The patient noted a clear alleviation of their symptoms already a few days after the intervention. This alleviation lasted for more than 6 months.
The injected solution corresponded to that of Example 1 with the difference that, for the imaging method to be used, 5 mL of a visible contrasting agent (Iopamidol) was added at a concentration of 50 g/100 mL. After the injection, this contrasting agent spread out within the joint capsule and documented the position of the injection needle and the distribution of the RTX within the joint capsule. The injected solution, containing RTX, was drawn off again directly after the injection. It could, however, also be drawn off after a defined, substance-dependent time of action or not be drawn off at all. The patient noted a clear alleviation of their symptoms already 15 hours after the intervention. This alleviation lasted for more than 8 months.
Under the optionally simultaneous (image converter, CT, sonography, MRI, etc.) or subsequent (x-ray, CT, MRI, sonography, arthroscopy, etc.) imaging control, the therapist brought an injection needle into the joint space of a knee joint and injected 9 mL of a 500 nM (approx. 0.003 mg) solution of resiniferatoxin, buffered with a buffer to a pH of 8.5, together physiological salt solution into the intracapsular space. The patient noted a clear alleviation of their symptoms already a few minutes after the intervention. This alleviation lasted for more than 6 months.
Under the optionally simultaneous (image converter, CT, sonography, MRI, etc.) or subsequent (x-ray, CT, MRI, sonography, arthroscopy, etc.) imaging control, the therapist, brought an injection needle into the joint space of a knee joint and injected 9 mL of a 500 nmolar solution (approximately 0.003 mg) of resiniferatoxin, buffered to a pH of 6.5 with a buffer, together with a physiological salt solution into the intracapsular space.
Under the optionally simultaneous (image converter, CT, sonography, MRI, etc.) or subsequent (x-ray, CT, MRI, sonography, arthroscopy, etc.) imaging control, the therapist, brought an injection needle into the joint space of a knee joint and injected 9 mL of a 500 nmolar solution (approximately 0.003 mg) of resiniferatoxin, in a physiological Ringer solution with 10 mmolar Ca2+ into the intracapsular space.

[2] = test system: affected joint; experiment: Continuous infusion of resiniferatoxin solution into the affected joint via infusion catheter; assay type: in vivo, human; conditions: Example 4: 100 nmolar
Protocol: The therapist placed a thin infusion catheter, similar to an epidural catheter, into the affected joint and, with a perfuser, injected a solution of […] of 100 nmolar of resiniferatoxin into the affected joint at a rate of 1-10 mL/h for 12 hours. Optionally, they also placed a drainage catheter with an optionally defined drainage resistance (such as 20 mm Hg), in order to achieve a liquid turnover. With this method, the therapist achieved a uniform infiltration of the painful joint, without large concentration peaks. Moreover, it was possible to define the period of action better.
The patient noted a clear alleviation of their symptoms already 12 hours after the intervention. This alleviation lasted for more than 1 year.

[3] = test system: postoperative pain; experiment: Injection of resiniferatoxin after knee or hip joint prosthesis implantation (postoperative pain); assay type: in vivo, human
Protocol: After a knee joint prosthesis had been implanted, the therapist injected 50 mL of a solution of 100 nmolar (approximately 0.001 mg) solution of resiniferatoxin into the joint capsule, which had been closed off once again.
After a hip joint prosthesis had been implanted, the therapist injected 50 mL of a solution of 100 nmolar (approximately 0.001 mg) solution of resiniferatoxin into the periprosthetic region without a capsule.

[4] = test system: painful, septic loosening of a total hip endoprosthesis; experiment: Injection into (neo)-capsule about the prosthesis in painful, septic loosening of a total hip endoprosthesis; assay type: in vivo, human
Protocol: A solution of 5 μmolar (approximately 0.03 mg) solution of resiniferatoxin was injected into the (neo)-capsule about the prosthesis of a patient with a painful, septic loosening of a total hip endoprosthesis. […] Optionally, this treatment may be supported with systemically administered antibiotics (such as 450 mg of Rifampicin, 750 mg of ciproflaxacin).

[5] = test system: shoulder joint; experiment: Injection into shoulder joint of patient with painful capsulitis of joints (frozen shoulder); assay type: in vivo, human; conditions: for joint mobility lost due to capsulitis: with physiotherapy
Protocol: The shoulder joint of a patient with painful capsulitis of joints (frozen shoulder) was injected with 9 mL of a 100 nmolar (approximately 0.001 mg) solution of resiniferatoxin in physiological salt solution. Once again, it was possible to check the distribution of the substance by adding the appropriate contrasting agent and employing an imaging procedure. Optionally, a substance with antiphlogistic activity was admixed. […] For this application, only a temporary analgesia (2-3 weeks) is desired. For this reason, the concentration of the neurotoxic substances, if anything, was kept low.
The shoulder joint of a patient with painful capsulitis of joints (frozen shoulder) was injected with 3 mL of a 500 nmolar (approximately 0.001 mg) solution of resiniferatoxin in physiological salt solution.

[6] = test system: chronically inflamed bursa (Bursa trochenterica); experiment: Injection into chronically inflamed bursa (Bursa trochenterica); assay type: in vivo, human
Protocol: The therapist injected 5 mL of a solution of a 500 nmolar (approximately 0.001 mg) solution of resiniferatoxin, buffered to a pH of 8.5 with a buffer, together with physiological salt solution as solvent, into a chronically inflamed bursa (Bursa trochenterica) over the greater trochanter of the hip. Within 60 minutes, the symptoms of the patient disappeared and the patient remained asymptomatic at this place for several years.
The therapist injected 50 mL of a 100 nmolar (approximately 0.001 mg) solution of resiniferatoxin in glycerin or Ringer lactate as solvent. Within 60 minutes, the symptoms of the patient disappeared and the patient remained asymptomatic at this place for several years.

[7] = Local application of RTX without local anesthetic, compared with capsaicin or with combination with local anesthetic; assay type: in vivo
Source text: Moreover, it is free of inflammation and pain. In particular, this preparation may be used without using ethanol, which otherwise is always necessary for the known intravesical administration. It is a further surprising advantage of the use without local or general anesthesia that, due to the injection, a warm, pleasant sensation sets in, which decisively supports combating pain. In this way, an amelioration of pain is achieved, which surpasses that of a combination with local anesthetics. This may also be explained by the antagonistic effect, which the local anesthetics have for vanilloid receptor agonists since they partially block the desired neurotoxic effect of vanilloids.

[8] = Example 1: 9 mL of 500 nmolar solution, knee joint, intracapsular
[9] = Example 2: 20 mL of 500 nmolar solution, knee joint, intracapsular
[10] = Example 3: solution of Example 1 plus 5 mL Iopamidol 50 g/100 mL, drawn off directly after injection
[11] = Example 8: 9 mL of 500 nM solution buffered to pH 8.5, physiological salt solution, knee joint
[12] = Example 9: 9 mL of 500 nmolar solution buffered to pH 6.5, physiological salt solution, knee joint
[13] = Example 10: 9 mL of 500 nmolar solution in Ringer solution with 10 mmolar Ca2+, knee joint
[14] = 1-10 mL/h for 12 hours via catheter
[15] = Example 7: 5 μmolar solution into (neo)-capsule about the prosthesis
[16] = Example 11: 9 mL of 100 nmolar solution in physiological salt solution, shoulder joint
[17] = Example 12: 3 mL of 500 nmolar solution in physiological salt solution, shoulder joint
[18] = Example 13: 5 mL of 500 nmolar solution buffered to pH 8.5, physiological salt solution, bursa over greater trochanter
[19] = Example 14: 50 mL of 100 nmolar solution in glycerin or Ringer lactate

Structure (SMILES): C=C(C)[C@]12C[C@@H](C)[C@@]34O[C@](Cc5ccccc5)(O[C@@H]1[C@@H]3C=C(COC(=O)Cc1ccc(O)c(OC)c1)C[C@]1(O)C(=O)C(C)=C[C@@H]41)O2 [resiniferatoxin]
- duration of alleviation [1, 8]: more than 6 months
- time to clear alleviation of symptoms after the intervention [1, 8]: 14 h
- duration of alleviation [1, 9]: more than 6 months
- time to clear alleviation of symptoms after the intervention [1, 9]: a few days
- duration of alleviation [1, 10]: more than 8 months
- time to clear alleviation of symptoms after the intervention [1, 10]: 15 h
- duration of alleviation [1, 11]: more than 6 months
- time to clear alleviation of symptoms after the intervention [1, 11]: a few minutes
- duration of alleviation [1, 12]: more than 6 months
- time to clear alleviation of symptoms after the intervention [1, 12]: Within minutes
- duration of alleviation [1, 13]: more than 6 months
- time to clear alleviation of symptoms after the intervention [1, 13]: Within minutes
- duration of alleviation [2, 14]: more than 1 year
- time to clear alleviation of symptoms after the intervention [2, 14]: 12 h
- inflamed tissue at subsequent arthroscopies ([2]; 1-10 mL/h for 12 hours, arthroscopies after 1, 2, 7, 14 and 28 days): only a very little inflamed tissue was present
- postoperative pain ([3]; Example 5: 50 mL of 100 nmolar solution into closed joint capsule after knee joint prosthesis): possible to minimize postoperative pain
- postoperative pain ([3]; Example 6: 50 mL of 100 nmolar solution into periprosthetic region without capsule after hip joint prosthesis): possible to minimize postoperative pain
- bone substance about the prosthesis (radiological) ([4]; Example 7: 5 μmolar solution): the bone substance had consolidated about the prosthesis
- duration of alleviation of pain [4, 15]: more than one year
- time to alleviation of pain [4, 15]: 6 to 12 h
- infection about the prosthesis ([4]; Example 7: 5 μmolar solution, diffusion of RTX along the shaft and about the socket): brought very much under control
- pain after injection [5, 16]: alleviated permanently
- time to alleviation of pain after the injection [5, 16]: A few minutes
- joint mobility lost due to capsulitis ([5]; Example 11: 9 mL of 100 nmolar solution): able to regain the mobility
- pain after injection [5, 17]: abated permanently
- time to abatement of pain after the injection [5, 17]: A few minutes
- joint mobility lost due to capsulitis ([5]; Example 12: 3 mL of 500 nmolar solution): regained the mobility lost due to capsulitis
- duration patient remained asymptomatic [6, 18]: several years
- time to disappearance of symptoms [6, 18]: ≤ 60 min
- duration patient remained asymptomatic [6, 19]: several years
- time to disappearance of symptoms [6, 19]: ≤ 60 min
- local tolerability (burning, inflammation of tissue) ([7]; applied locally, without a local anesthetic): no burning and also no inflammation of tissue
- effectiveness of RTX by itself versus injection together with a local anesthetic ([7]; local intraarticular injection at a very low concentration): more effective than an injection together with a local anesthetic
